Article PMC7915724 (2021)

Columns and labels:
[1] = test system: biotin-Py24 (VEGF i-motif) (DNA, i motif) GACCCCGCCCCCGGCCCGCCCCGG; experiment: SPR; conditions: 100 mM KCl, 20 mM MES pH 5.5, 0.05% Tween-20, 25 °C
[2] = test system: biotin-Pu24 (VEGF G-quadruplex) (DNA, G4) CCGGGGCGGGCCGGGGGCGGGGTC; experiment: SPR; conditions: 100 mM KCl; 20 mM Tris-HCl pH 7.4, 25 °C; tested up to 50 μM
[3] = test system: biotin-Hairpin (duplex DNA) (DNA, hairpin, HEG linker between nucleotides 10 and 11 (joins the two TATAGCTATA halves)) TATAGCTATATATAGCTATA; experiment: SPR; conditions: 100 mM KCl; 20 mM Tris-HCl pH 7.4, 25 °C; tested up to 50 μM
[4] = test system: Py24 (VEGF i-motif) (DNA, i motif) GACCCCGCCCCCGGCCCGCCCCGG; experiment: ITC; conditions: 100 mM KCl, 30 mM KH2PO4, 30 mM K2HPO4; 1× BPES (1 mM EDTA) pH 5.0, 30 °C; Py24 titrated into 3c; one-site fit
[5] = test system: FPy24 (DNA, i motif) GACCCCGCCCCCGGCCCGCCCCGG; experiment: MST; conditions: 100 mM KCl (annealing buffer); 1 μM DNA; assay pH not stated
[6] = test system: FPu24 (DNA, G4) CCGGGGCGGGCCGGGGGCGGGGTC; experiment: MST; conditions: 100 mM KCl (annealing buffer); 1 μM DNA; assay pH not stated
[7] = test system: FHairpin (duplex DNA) (DNA, hairpin, HEG linker between nucleotides 10 and 11 (joins the two TATAGCTATA halves)) TATAGCTATATATAGCTATA; experiment: MST; conditions: 1 μM DNA; assay buffer not stated
[8] = test system: FBCL2 (DNA, i motif) CAGCCCCGCTCCCGCCCCCTTCCTCCCGCGCCCGCCCCT; experiment: MST; conditions: 100 mM KCl (annealing buffer); 1 μM DNA; assay pH not stated
[9] = test system: FKRAS (DNA, i motif) GCCCGGCCCCCGCTCCTCCCCCGCCGGCCCGGCCCGGCCCCCTCCTTCTCCCCG; experiment: MST; conditions: 100 mM KCl (annealing buffer); 1 μM DNA; assay pH not stated
[10] = test system: Fc-kit (DNA, i motif) CCCCTCCCTCGCGCCCGCCCG; experiment: MST; conditions: 100 mM KCl (annealing buffer); 1 μM DNA; assay pH not stated
[11] = test system: FPDGFR-β (DNA, i motif) GCGTCCACCCTCCCTGCCCCGCCGCCCCCCCTTCTCCCAGC; experiment: MST; conditions: 100 mM KCl (annealing buffer); 1 μM DNA; assay pH not stated
[12] = test system: Py24 (VEGF i-motif) (DNA, i motif) GACCCCGCCCCCGGCCCGCCCCGG; experiment: TO displacement, fluorescence; conditions: 100 mM KCl (annealing buffer); 1 μM DNA, 2 μM thiazole orange displaced; assay pH not stated
[13] = test system: Pu24 (VEGF G-quadruplex) (DNA, G4) CCGGGGCGGGCCGGGGGCGGGGTC; experiment: TO displacement, fluorescence; conditions: 100 mM KCl (annealing buffer); 1 μM DNA, 2 μM thiazole orange displaced; assay pH not stated
[14] = test system: PDGFR-β (DNA, i motif) GCGTCCACCCTCCCTGCCCCGCCGCCCCCCCTTCTCCCAGC; experiment: TO displacement, fluorescence; conditions: 100 mM KCl (annealing buffer); 1 μM DNA, 2 μM thiazole orange displaced; b21 gives lower bound of range as 8.01
[15] = test system: BCL2 (DNA, i motif) CAGCCCCGCTCCCGCCCCCTTCCTCCCGCGCCCGCCCCT; experiment: TO displacement, fluorescence; conditions: 100 mM KCl (annealing buffer); 1 μM DNA, 2 μM thiazole orange displaced; assay pH not stated
[16] = test system: KRAS (DNA, i motif) GCCCGGCCCCCGCTCCTCCCCCGCCGGCCCGGCCCGGCCCCCTCCTTCTCCCCG; experiment: TO displacement, fluorescence; conditions: 100 mM KCl (annealing buffer); 1 μM DNA, 2 μM thiazole orange displaced; assay pH not stated
[17] = test system: c-kit (DNA, i motif) CCCCTCCCTCGCGCCCGCCCG; experiment: TO displacement, fluorescence; conditions: 100 mM KCl (annealing buffer); 1 μM DNA, 2 μM thiazole orange displaced; assay pH not stated
[18] = test system: biotin-Pu24 (VEGF G-quadruplex) (DNA, G4) CCGGGGCGGGCCGGGGGCGGGGTC; experiment: SPR; conditions: 100 mM KCl; 20 mM Tris-HCl pH 7.4, 25 °C; tested up to 50 μM; remark: listed apart in the source
[19] = test system: biotin-Hairpin (duplex DNA) (DNA, hairpin, HEG (hexaethylene glycol) linker between 10 and 11) TATAGCTATATATAGCTATA; experiment: SPR; conditions: 100 mM KCl; 20 mM Tris-HCl pH 7.4, 25 °C; tested up to 50 μM

SMILES: CC1(C)CC[C@]2(C(=O)NCCCNCCNCCCN)CC[C@]3(C)C(=CC[C@@H]4[C@@]5(C)CC[C@H](O)C(C)(C)[C@@H]5CC[C@]43C)[C@@H]2C1
- KD ([1]; b20 prints 1.93): 1.95 µM
- KD [2]: > 50 µM
- KD [3]: > 50 µM
- KD [4]: 1.13 µM
- KD [5]: 1.14 µM
- KD [6]: 47.9 µM
- KD [7]: 91.4 µM
- KD [8]: 95.1 µM
- KD [9]: 37.8 µM
- KD [10]: 43.3 µM
- KD [11]: 14.4 µM
- DC50 [12]: 3.19 µM
- DC50 [13]: 8.29 µM
- DC50 [14]: 8.08 µM
- DC50 [15]: 16.1 µM
- DC50 [16]: 13.1 µM
- DC50 [17]: 14.7 µM

SMILES: CC1(C)CC[C@]2(C(=O)NCCNC(=O)/C=C/c3ccc(O)c(O)c3)CC[C@]3(C)C(=CC[C@@H]4[C@@]5(C)CC[C@H](O)C(C)(C)[C@@H]5CC[C@]43C)[C@@H]2C1
- KD [1]: 3.09 µM
- KD [2]: > 50 µM
- KD [3]: > 50 µM

SMILES: CCN(CC)CCNC(=O)C1=C[C@]2(C)[C@H]3CC=C4[C@@H]5CC(C)(C)CC[C@]5(C(=O)OC)CC[C@@]4(C)[C@]3(C)CC[C@H]2C(C)(C)C1=O
- KD ([1]; tested up to 50 μM): > 50 µM
- KD [18]: > 50 µM
- KD [19]: > 50 µM

SMILES: Cc1cn(CC(=O)NCCCNCCNCCCNC(=O)[C@]23CCC(C)(C)C[C@H]2C2=CC[C@@H]4[C@@]5(C)CC[C@H](O)C(C)(C)[C@@H]5CC[C@@]4(C)[C@]2(C)CC3)c(=O)[nH]c1=O
- KD [1]: 5.01 µM
- KD [2]: > 50 µM
- KD [3]: > 50 µM
